US20070166246A1, “Composition for oral cavity” (TOYO SHINYAKU CO., LTD., priority 2004, published 2007)

Tested on: blood flow in the lower gingiva
Experiment: Blood flow improvement in the gingiva using tablets (Example 3)
Assay type: in vivo, human
Conditions: gradually dissolved in the mouth (two tablets, about 2 mg extract; vitamin E 100 mg alone), four volunteers, mean ± standard deviation
Protocol: Next, using the tablets, an experiment was conducted with respect to the effect of improving blood flow in a tissue (the gingiva) of the mouth through the cooperation of four of the five volunteers in Example 1. More specifically, first, the volunteers put two tablets in their mouths, and ingested the tablets into the body while gradually dissolving the tablets in their mouths. Next, at predetermined times (five minutes and 15 minutes) after completion of ingestion of the tablets, the blood flow in the lower gingiva was measured with a blood flow meter. It should be noted that the blood flow meter and others that were used herein are the same as those in Example 1. Moreover, as an example of a substance that improves blood flow, vitamin E (100 mg) alone was ingested while being gradually dissolved in the mouth, and the blood flow was also measured. Furthermore, the tablets containing the pine bark extract (two tablets) were ingested by being swallowed at one gulp with 10 mL of distilled water, instead of being gradually dissolved in the mouth, and the blood flow was also measured.
The results of the blood flow measurement are shown as relative values, taking the measurement results of the blood flow measurement performed before putting the tablets in the mouth as 100. […]

## vitamin E
5 min after ingestion
  blood flow in the lower gingiva, relative value (before putting the tablets in the mouth = 100): 116.99 ± 14.39
15 min after ingestion
  blood flow in the lower gingiva, relative value (before putting the tablets in the mouth = 100): 105.63 ± 16.16
